# Patent US20140187422A1, “Fungicidal substituted 1--1H-[1,2,4]triazole compounds” (BASF SE, priority 2011, published 2014)
# Where two headings read alike, the source gives them in different places.
# Tests used:
# Septoria tritici [1] = assay: Microtest: activity against leaf blotch on wheat caused by Septoria tritici (Septtr); type: cell-based; settings: relative growth vs active compound-free control (100%), 7 days after inoculation
# Pyriculana oryzae = type: cell-based; settings: relative growth vs control (100%), 7 days after inoculation
# Pyrenophora teres = assay: Microtiter test: activity against net blotch Pyrenophora teres on barley (Pyrnte); type: cell-based
# Method: M3 Activity against net blotch Pyrenophora teres on barley in the microtiter test ([…] stock solutions were mixed according to the ratio, pipetted onto a micro titer plate (MTP) and diluted with water to the stated concentrations. A spore suspension of Pyrenophora teres in an aqueous biomalt or yeast-bactopeptone-glycerine solution was then added. The plates were placed in a water vapor-saturated chamber at a temperature of 18° C. Using an absorption photometer, the MTPs were measured at 405 nm 7 days after the inoculation. The measured parameters were compared to the growth of the active compound-free control variant (100%) and the fungus-free and active compound-free blank value to determine the relative growth in % of the pathogens in the respective active compounds.
# Septoria tritici [2] = assay: Green house: curative control of leaf blotch on wheat caused by Septoria tritici (Septtr K7); type: in vivo; settings: sprayed 7 days after inoculation, % diseased leaf area, untreated control 80
# Method: The spray solutions were prepared in several steps: The stock solution were prepared: a mixture of acetone and/or dimethylsulfoxide and the wetting agent/emulsifier Wettol, which is based on ethoxylated alkylphenoles, in a relation (volume) solvent-emulsifier of 99 to 1 was added to 25 mg of the compound to give a total of 5 ml. Water was then added to total volume of 100 ml. This stock solution was diluted with the described solvent-emulsifier-water mixture to the given concentration. G1 Curative control of leaf blotch on wheat caused by Septoria tritici (Septtr K7) Leaves of pot-grown wheat seedling were inoculated with an aqueous spore suspension of Septoria tritici. Then the trial plants were immediately transferred to a humid chamber at 18-22° C. and a relative humidity close to 100%. After 4 days the plants were transferred to a chamber with 18-22° C. and a relative humidity close to 70%. Seven days after inoculation the plants were sprayed to run-off with an aqueous suspension of the active compound or their mixture, prepared as described. Then the plants were transferred back to the chamber with 18-22° C. and a relative humidity close to 70%. After 4 weeks the extent of fungal attack on the leaves was visually assessed as % diseased leaf area.
SMILES,Growth 0 (%) at 0.002 ppm Septtr (Septoria tritici [1]) [%],Growth (%) at 0.5 ppm Pyrior (Pyriculana oryzae) [%],Growth (%) at 2 ppm Pyrior (Pyriculana oryzae) [%],"Growth (%) at 8 ppm Pymte (Pyrenophora teres; relative growth vs control (100%), 7 days after inoculation) [%]",Disease (%) at 250 ppm Septtr K7 (Septoria tritici [2]) [%],Growth (%) at 8 ppm Pymte (Pyrenophora teres) [%]
"COC(Cn1cncn1)(c1ccc(Oc2ccc(Cl)cc2)cc1Cl)C1CC1 (stereo not shown) [I-1, 1-[2-[2-chloro-4-(4-chlorophenoxy)phenyl]-2-cyclopropyl-2-methoxy-ethyl]-1,2,4-triazole]",10,21,0,12,1,–
COC(Cn1cncn1)c1ccc(Oc2ccc(Cl)cc2)cc1Cl (stereo not shown),72,–,–,–,–,–
CC(O)(Cn1cncn1)c1ccc(Oc2ccc(Cl)cc2)cc1Cl (stereo not shown),–,–,23,–,–,62
CCC(Cn1cncn1)(OC)c1ccc(Oc2ccc(Cl)cc2)cc1Cl (stereo not shown),–,47,–,–,–,39
